± gives the standard error.
These molecules were tested on 621-103 (TSC2-rescued) (assay: relative viability vs DMSO; higher = less cytotoxic). Conditions: 1 µM; serum: 10% FBS; 72 h.
Molecule `Cc1cccc(-c2[nH]c(C(C)(C)C)nc2-c2ccc3nccnc3c2)n1` has a relative viability of 97.18 ± 0.62%.
In the case of `Cc1cnc(Nc2ccc(N3CCN(C)CC3)cc2)nc1Nc1cccc(S(=O)(=O)NC(C)(C)C)c1`, the relative viability is reported as 51 ± 1.3%.
Molecule `Cn1c(N2CCCCS2(=O)=O)nc(C(=O)NCc2ccc(F)cc2)c(O)c1=O` has a relative viability of 100.8 ± 0.82%.
`Cn1cc(C2=C(c3ccc(Cl)cc3Cl)C(=O)NC2=O)c2ccccc21` gave a relative viability of 80.2 ± 1.9%.
Molecule `N#Cc1c(O)c2c(-c3ccc(-c4ccccc4O)cc3)csc2[nH]c1=O` has a relative viability of 100.3 ± 0.89%.
Work on `NC(=O)[C@@H](CCC(F)(F)F)N(Cc1ccc(-c2ncon2)cc1F)S(=O)(=O)c1ccc(Cl)cc1` yielded a relative viability of 103.76 ± 0.01%.
With `NC(=O)c1ccc(-c2nc(-c3ccccn3)c(-c3ccc4c(c3)OCO4)[nH]2)cc1` the relative viability was 98.1 ± 1.6%.
With `NC(=O)c1cccc2[nH]c(-c3ccc(C4CCCN4)cc3F)nc12` (stereo not given) the relative viability was 103 ± 2.3%.
Molecule `Nc1nccc(Oc2ccc(NC(=O)c3c[nH]cc(-c4ccc(F)cc4)c3=O)cc2F)c1Cl` has a relative viability of 98.9 ± 1.2%.
Molecule `O=C(NC[C@H](O)CO)c1ccncc1Nc1ccc(I)cc1F` has a relative viability of 99.919 ± 0.052%.
`O=C1NC(=O)/C(=C/c2ccc(-c3ccc(F)cc3O)o2)S1` gave a relative viability of 88.2 ± 2%.
For `O=C1NC(=O)/C(=C/c2ccc3c(c2)OC(F)(F)O3)S1`, the relative viability was 98.1 ± 6.7%.
In the case of `O=C1NC(=O)/C(=C\c2ccc3nccnc3c2)S1`, the relative viability is reported as 99.5 ± 1.9%.
`Oc1c2ccccc2c2c3c(cccc13)N=N2` gave a relative viability of 98.2 ± 1.6%.
Work on `Oc1ccc(-c2nc(-c3ccc(F)cc3)c(-c3ccncc3)[nH]2)cc1` yielded a relative viability of 98.4 ± 1.1%.

Same assay, conditions: 10 µM; serum: 10% FBS; 72 h
Work on `CC(C)OC(=O)C1=CN(C(=O)c2ccc(F)c(F)c2)CC(C)(C)c2c1[nH]c1ccccc21` yielded a relative viability of 99.22 ± 0.99%.
Molecule `CN(C)Cc1cccc(N/C(=C2\C(=O)Nc3cc(C(N)=O)ccc32)c2ccccc2)c1` has a relative viability of 84.9 ± 2.5%.
`CN(C)Cc1cccc(N=C(c2ccccc2)c2c(O)[nH]c3cc(C(=O)N(C)C)ccc23)c1` showed a relative viability of 47.4 ± 2.2%.
`CNC(=O)Nc1ccc(-c2nc(N3CC4CCC(C3)O4)c3cnn(C4CCC5(CC4)OCCO5)c3n2)cc1` was tested, and the relative viability was 22 ± 0.064%.
Molecule `COC(=O)N[C@H](C(=O)N1CCC[C@H]1c1ncc(-c2ccc(-c3ccc(-c4cnc([C@@H]5CCCN5C(=O)[C@@H](NC(=O)OC)C(C)C)[nH]4)cc3)cc2)[nH]1)C(C)C` has a relative viability of 94.1 ± 1.9%.
In the case of `COc1cc2c(Nc3ccc(NC(=O)c4ccccc4)cc3)ncnc2cc1OCCCN1CCOCC1`, the relative viability is reported as 12.4 ± 0.25%.
Molecule `COc1cc2c(Oc3ccc(NC(=O)C4(C(=O)Nc5ccc(F)cc5)CC4)cc3F)ccnc2cc1OCCCN1CCOCC1` has a relative viability of 1.1 ± 0.14%.
For `COc1ccccc1N1CCN(CCN(C(=O)C2CCCCC2)c2ccccn2)CC1`, the relative viability was 98.5 ± 2.6%.
For `C[C@@H]1CCO[C@H]2Cn3cc(C(=O)NCc4ccc(F)cc4F)c(=O)c(O)c3C(=O)N12`, the relative viability was 109 ± 3.2%.
For `C[S+]([O-])c1ccc(-c2nc(-c3ccc(F)cc3)c(-c3ccncc3)[nH]2)cc1` (stereo not given), the relative viability was 98.1 ± 1.3%.
Molecule `Cc1[nH]c(/C=C2\C(=O)Nc3ccc(S(=O)(=O)N(C)c4cccc(Cl)c4)cc32)c(C)c1C(=O)N1CCN(C)CC1` has a relative viability of 91.5 ± 3.8%.
`Cc1[nH]nc2ccc(-c3cncc(OC[C@@H](N)Cc4ccccc4)c3)cc12` gave a relative viability of 6.08 ± 0.71%.
Work on `Cc1c(NC(=O)OC[C@@H]2COCCN2)cn2ncnc(Nc3ccc4c(cnn4Cc4cccc(F)c4)c3)c12` yielded a relative viability of 82.5 ± 5.9%.
Molecule `Cc1ccc(C(=O)N(CCCN)[C@@H](c2oc3cc(Cl)ccc3c(=O)c2Cc2ccccc2)C(C)C)cc1` has a relative viability of 1.36 ± 0.14%.
For `Cc1ccc(NC(=O)c2cccc(N(C)C)c2)cc1NC(=O)c1ccc(O)cc1`, the relative viability was 98.9 ± 1.4%.
In the case of `Cc1cccc(-c2[nH]c(C(C)(C)C)nc2-c2ccc3nccnc3c2)n1`, the relative viability is reported as 83.8 ± 1.5%.
Molecule `Cc1cnc(Nc2ccc(N3CCN(C)CC3)cc2)nc1Nc1cccc(S(=O)(=O)NC(C)(C)C)c1` has a relative viability of 1.33 ± 0.2%.
`Cn1c(N2CCCCS2(=O)=O)nc(C(=O)NCc2ccc(F)cc2)c(O)c1=O` showed a relative viability of 100 ± 1.4%.
Work on `Cn1cc(C2=C(c3ccc(Cl)cc3Cl)C(=O)NC2=O)c2ccccc21` yielded a relative viability of 76.2 ± 6.7%.
`N#Cc1c(O)c2c(-c3ccc(-c4ccccc4O)cc3)csc2[nH]c1=O` gave a relative viability of 105 ± 3.5%.
Work on `NC(=O)[C@@H](CCC(F)(F)F)N(Cc1ccc(-c2ncon2)cc1F)S(=O)(=O)c1ccc(Cl)cc1` yielded a relative viability of 102 ± 1.9%.
`NC(=O)c1ccc(-c2nc(-c3ccccn3)c(-c3ccc4c(c3)OCO4)[nH]2)cc1` showed a relative viability of 94.07 ± 0.91%.
With `NC(=O)c1cccc2[nH]c(-c3ccc(C4CCCN4)cc3F)nc12` (stereo not given) the relative viability was 94 ± 1.4%.
`Nc1nccc(Oc2ccc(NC(=O)c3c[nH]cc(-c4ccc(F)cc4)c3=O)cc2F)c1Cl` gave a relative viability of 98.15 ± 0.84%.
`O=C(NC[C@H](O)CO)c1ccncc1Nc1ccc(I)cc1F` was tested, and the relative viability was 78.4 ± 1.2%.
Work on `O=C1NC(=O)/C(=C/c2ccc(-c3ccc(F)cc3O)o2)S1` yielded a relative viability of 108 ± 3.4%.
`O=C1NC(=O)/C(=C/c2ccc3c(c2)OC(F)(F)O3)S1` gave a relative viability of 88.49 ± 0.37%.
`O=C1NC(=O)/C(=C\c2ccc3nccnc3c2)S1` gave a relative viability of 98.8 ± 1.3%.
Work on `Oc1c2ccccc2c2c3c(cccc13)N=N2` yielded a relative viability of 95.2 ± 2.7%.
`Oc1ccc(-c2nc(-c3ccc(F)cc3)c(-c3ccncc3)[nH]2)cc1` showed a relative viability of 98.8 ± 1.3%.

Source: the supplement of paper PMC8960247
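Further: immortalized renal angiomyolipoma cells stably carrying empty vector or TSC2, dosed in 384-well plates in DMEM, viability normalized to vehicle-treated wells within each plate.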
